“And” between values parts separate entries of the source, which are not always exact repeats. Equal values may be shown once.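 Values below derive from 48-hour exposures of cells grown in 96-well plates, with endpoints linearly interpolated between the two concentrations bracketing the appropriate inhibition level. GI50: concentration for 50% inhibition of growth. Definition used: TGI = concentration required for complete inhibition of growth.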
Key:
Experiment in all cases: growth of human tumour cells (NCI), 48 h
XF 498 CNS = tested on: XF 498 CNS
HOP-18 NSCLC = tested on: HOP-18 NSCLC
RXF-631 renal = tested on: RXF-631 renal
DMS 273 small cell lung = tested on: DMS 273 small cell lung
LXFL 529 NSCLC = tested on: LXFL 529 NSCLC
KM20L2 colon = tested on: KM20L2 colon
DMS 114 small cell lung = tested on: DMS 114 small cell lung
M19-MEL melanoma = tested on: M19-MEL melanoma
DLD-1 colon = tested on: DLD-1 colon
SNB-78 CNS = tested on: SNB-78 CNS

Row | Structure (SMILES) | TGI (XF 498 CNS) [µM] | TGI (HOP-18 NSCLC) [µM] | TGI (RXF-631 renal) [µM] | TGI (DMS 273 small cell lung) [µM] | TGI (LXFL 529 NSCLC) [µM] | TGI (KM20L2 colon) | TGI (DMS 114 small cell lung) | TGI (M19-MEL melanoma) [µM] | TGI (DLD-1 colon) [µM] | TGI (SNB-78 CNS) [µM] | GI50 (XF 498 CNS) [nM] | GI50 (HOP-18 NSCLC)
1 | COc1cc2c(c(OC)c1OC)[C@@H]1CCCCC[C@@H]1CCC2=O | > 100 | > 100 | > 100 | > 100 | > 100 | > 100 µM | > 57.1 µM | > 100 | > 61 |  |  | 
2 | O=C1C[C@@H]2[C@@H](C=CC23CCCC3)N1O |  | > 100 |  | > 100 | > 100 | > 100 µM | > 100 µM | > 100 | > 100 | > 100 |  | 
3 | O=C(O)C(Cc1ccc(O)cc1)N=Cc1nc(-c2ccccc2)oc1O (stereo not drawn) | > 100 | > 100 |  | > 100 | > 100 | > 100 µM | > 100 µM |  | > 100 | > 100 |  | 
4 | C=Cc1c(-c2ccccc2)cnc2[nH]c3ccccc3c12 | > 50 |  |  | > 50 | > 50 |  | > 50 µM | > 50 | > 50 |  |  | 
5 | CC1=CC(=O)c2ccc3c4ccccc4n(C)c3c2C1=O | > 100 | 42.2 |  | > 100 | > 100 |  | 97.1 µM | 38.2 | > 100 | > 100 |  | 
6 | COc1cc(CNc2ccc(C)cc2)cc(OC)c1OC | > 100 | > 100 |  |  | > 100 | 0.447 µM and 0.939 µM | 0.981 µM and 3.08 µM | > 100 | > 100 | > 100 | 1980 | 17.8 µM and > 60.8 µM
7 | COc1cc(C(C)c2cc3c(cc2OCCCCCOc2cc4c(cc2C(C)c2cc(OC)c(OC)c(OC)c2)OCO4)OCO3)cc(OC)c1OC (stereo not drawn) |  |  |  | > 100 | > 100 | > 100 µM |  | > 100 | > 100 |  |  | 
8 | COc1c(O)ccc(/C=N/NC(=S)NCOCCOC(C)=O)c1OC | > 100 | > 100 | > 100 | > 100 | > 100 | > 100 µM | > 100 µM | > 100 | > 100 | > 100 |  | 
9 | Cc1nsc2cc(Cl)n(C)c(=O)c12 | > 100 |  | > 100 | > 100 | > 100 | > 100 µM | > 100 µM | > 100 | > 100 | > 100 |  | 
10 | COc1cc(Br)c(/C=N/N=C(\N)NO)cc1OC | 69.6 | > 100 | > 100 | > 100 | > 100 | 47.2 µM | 33.6 µM | 76.2 | > 100 | > 100 |  | 
11 | COc1cc(Br)c(C=Nc2cccc3ccc(OS(=O)(=O)c4ccc([N+](=O)[O-])cc4)cc23)cc1OC |  |  |  |  | > 100 |  | > 100 µM | > 100 | > 100 | > 100 |  | 
12 | COC(=O)C(C(=O)C(=O)Nc1nc2ccc(OC)cc2s1)c1cnc2ccccc2n1 (stereo not drawn) | > 100 |  |  |  | > 100 | > 100 µM |  | > 100 | > 100 | > 100 |  | 
13 | CC[n+]1c(/C=C/c2cc(C(=O)OC)n3c2sc2ccccc23)sc2ccccc21 | 29.3 |  |  | 38.2 | 32.9 | 35.1 µM | 52.9 µM | 35.5 |  |  |  | 
14 | Nc1ccc(C(=O)NN2C(=O)C(Cl)C2c2ccc(O)cc2)cc1 (stereo not drawn) | 27.8 |  |  | 35.1 | 31.7 | 41.9 µM | 25.7 µM | 38.8 | 33.4 | 44.6 |  | 
15 | O=C(CC(=O)n1nc(-c2ccccc2)c(N=Nc2ccc([N+](=O)[O-])cc2)c1-c1ccccc1)Nc1ccc(Cl)cc1 | 59.1 | > 100 | > 100 | > 100 | > 100 | 24.9 µM | 48.8 µM | > 100 | > 100 | > 100 |  | 

— PubChem BioAssay (NCI)
